Source: the OPERA property sets (Mansouri et al. 2018)

Conditions: for log10 biotransformation half-life (days) / log10 BCF: fish

Compound	melting point [°C]	boiling point [°C]	also measured
O=[N+]([O-])c1ccc(C(F)(F)F)cc1	39		
CCCOCCN(C(=O)CCl)c1c(CC)cccc1CC			log10 Henry constant (atm·m³/mol): -8.1; log10 vapour pressure (mmHg): -6
CCCC(=O)c1ccccc1O	10		
N#CCCO	-46	221	log10 vapour pressure (mmHg): -1.1
CCCCCCCC/C=C\CCCCCCCC(=O)[O-].[NH4+]	71		
CCCCCCC1CCCCC1	-43	224	log10 vapour pressure (mmHg): -0.943; log10 biotransformation half-life (days): 0.7
CCCCC(CC)CN (centres undefined)	-76	169	log10 vapour pressure (mmHg): 0.146
CCCCCl	-123	78.6	log10 Henry constant (atm·m³/mol): -1.78; log10 Koa: 2.72; log10 vapour pressure (mmHg): 2.01; ready biodegradability: not readily biodegradable; log10 BCF: 1.23; log10 biotransformation half-life (days): -0.45
OCCSSCCO	26		
Cc1ccc(C(C)C)c(O)c1C(=O)O	127		
CN(C)c1ccc(N=C2C=CC(=O)C=C2)cc1	134		
CCCCCCCCCCCCCCCCO	49.3	334	log10 Koa: 9.9; log10 vapour pressure (mmHg): -5.22; ready biodegradability: readily biodegradable
Fc1cc(F)cc(F)c1	-5.5	75.5	log10 vapour pressure (mmHg): 2.02
CC(O)Cn1c(=O)c2c(ncn2C)n(C)c1=O (centres undefined)	141		
O=Cc1c(O)ccc2ccccc12	83		ready biodegradability: readily biodegradable
Brc1c(Br)c(Br)c(Oc2c(Br)c(Br)c(Br)c(Br)c2Br)c(Br)c1Br	295	530	ready biodegradability: not readily biodegradable; log10 biotransformation half-life (days): 1.16
O=C(O)C=Cc1ccc(O)cc1			ready biodegradability: readily biodegradable
Clc1cccc(-c2c(Cl)cccc2Cl)c1Cl			log10 biotransformation half-life (days): 2.18
O=C(O)c1cc(Cl)cc(Cl)c1	188		
COC(=O)C(Cl)(Cl)Cl	-17.5	154	
O=C1OC2(c3ccccc31)c1ccc(O)c(Br)c1Oc1c2ccc(O)c1Br	285		
O=C(O)CCBr	62.5		
CC(C)(C)c1nnc(NS(=O)(=O)c2ccc(N)cc2)s1	222		
Cc1ccc(O)c(Cl)c1C	27	188	
CCCC(C)=C(CC)C(C)=O		190	

Compound	melting point [°C]	boiling point [°C]	also measured
c1ccc(-c2coc(-c3ccccc3)n2)cc1	103	339	
COC(=O)c1cc(C(=O)OC)c(C(=O)OC)cc1C(=O)OC	144		
CC(=O)c1ccc(O)c(O)c1O	173		
CCC(=O)C(C)=O		108	
CCCCNCCO	-2	199	
Cc1ccc(N)c(Br)c1	26	240	
O=C(CCNNC(=O)c1ccncc1)NCc1ccccc1	152		
COc1ccc2c(C(=O)c3ccc(Cl)cc3)c(C)n(CC(=O)O)c2c1	242		
COc1nc(C)nc(NC(=O)NS(=O)(=O)c2ccccc2Cl)n1	176		log10 Koc (L/kg): 2.19; log10 vapour pressure (mmHg): -10.6
Oc1cc(Cl)ccc1Oc1ccc(Cl)cc1Cl	55.6		ready biodegradability: not readily biodegradable; log10 BCF: 1.72
Cc1cc(Br)ccc1O	64.7	235	
OC1CCCCC1c1ccccc1 (centres undefined)		228	log10 vapour pressure (mmHg): -1.44
C#C[C@]1(O)CC[C@H]2[C@@H]3CCC4=C(CCC(=O)C4)[C@H]3CC[C@@]21C	170		
CC(F)(F)F	-111	-47.5	log10 vapour pressure (mmHg): 3.98
Cc1cccc(C(N)=O)c1	95		
O=[N+]([O-])c1ccc(C2CCCCC2)cc1	58.5		
COc1ccccc1OC(=O)Oc1ccccc1OC	89		
Clc1cccc(-c2cccc(Cl)c2)c1	29	320	log10 Henry constant (atm·m³/mol): -3.63; log10 vapour pressure (mmHg): -3.19
O=C(O)Cc1c(F)c(F)c(F)c(F)c1F	109		
C=C1C(=O)OC2[C@H]1CC[C@H](C)[C@@H]1C=CC(=O)[C@@]21C (some centres undefined)	146		
O=S1CCCC1		236	
COc1cc(Oc2ccc(Cl)cc2Cl)ccc1[N+](=O)[O-]	114		log10 vapour pressure (mmHg): -4.85; log10 BCF: 3.59
CCC1(CC)C(=O)NC(=O)N(C)C1=O	150		
CC[C@@H]1C(=O)OC[C@@H]1Cc1cncn1C.Cl	204		
CC1CCS1 (centres undefined)		107	

Compound	melting point [°C]	boiling point [°C]	also measured
CCC(Br)(CC)C(=O)NC(N)=O	118		
CCOC(=O)CCCCCCC(=O)OCC	5.9	283	
Nc1cccc2cc3ccccc3nc12	108		
IC(I)I	119	218	
CC(C)CC=O	-51	92.5	log10 vapour pressure (mmHg): 1.7
Cc1cc(NS(=O)(=O)c2ccc(N)cc2)n(-c2ccccc2)n1	195		
BrC1CCC(Br)C(Br)CCC(Br)C(Br)CCC1Br (centres undefined)			log10 vapour pressure (mmHg): -6.33; ready biodegradability: not readily biodegradable
CC(C)[C@@H](C)/C=C/[C@@H](C)[C@H]1CC[C@H]2/C(=C/C=C3\C[C@@H](O)CC[C@@H]3C)CCC[C@]12C	126		
CC(=O)c1cccc(Br)c1	7.5		
Cc1cccc2c1Cc1ccccc1-2	85		log10 vapour pressure (mmHg): -3.52
CCC(C)(C)c1cc(C)cc(C(C)(C)CC)c1O		283	
Cc1ccccc1N.Cl	215	242	
CCOc1cccc(OCC)c1	12.4	235	
Clc1c(Cl)c(Cl)c2nccnc2c1Cl	190		
COCCOC1=C(N2CC2)C(=O)C(OCCOC)=C(N2CC2)C1=O	80		
CCC(C)(CC)c1cc(NC(=O)c2c(OC)cccc2OC)on1	178		log10 Koc (L/kg): 2.4; log10 vapour pressure (mmHg): -8.38
FC(F)(Br)C(F)(F)C(F)(F)C(F)(F)Br		97	
O=C(Cl)CCCC(=O)Cl		217	log10 vapour pressure (mmHg): -0.932
COc1cc(OC)c(OC)cc1C=O	114		
c1cncc([C@@H]2CCCN2)c1		270	ready biodegradability: not readily biodegradable
CC(=O)C=Cc1ccco1	39.5		
CCOC(=O)C=C1SC(N2CCCCC2)C(=O)N1CC (centres undefined)	86.5		
O=C1c2cc([N+](=O)[O-])ccc2-c2ccc([N+](=O)[O-])cc21	294		
Clc1ccccc1Br	-12.3	204	
COC(=O)C1(S(=O)(=O)c2ccc(C)cc2)CC1	97.2		

Compound	melting point [°C]	boiling point [°C]	also measured
Nc1cnc2ccccc2c1	91.5		log10 vapour pressure (mmHg): -4.54
Cc1ccccc1Br	-27.8	182	log10 vapour pressure (mmHg): 0.0186
CCCCOC(=O)CCC(=O)O	8.6		
CCOc1cccc(F)c1	-27.5	172	
CC(C)COC(OCC(C)C)OCC(C)C		223	
CC(C)(S)[C@@H](N)C(=O)O	198		
O=C(OOC(=O)c1ccc(Cl)cc1Cl)c1ccc(Cl)cc1Cl	106		ready biodegradability: not readily biodegradable
Oc1ccccc1-c1nc2ccccc2s1	131		
c1ccc2c(-c3cccc4ccccc34)cccc2c1	160		
Clc1ccc(Oc2ccc(Cl)c(Cl)c2)cc1			log10 vapour pressure (mmHg): -3.98
CCc1cn([C@H]2C[C@H](O)[C@@H](CO)O2)c(=O)[nH]c1=O	152		
O=[N+]([O-])c1cccc(CCl)c1	46		
Cc1ccc(Cl)cc1	7.5	162	log10 vapour pressure (mmHg): 0.43; ready biodegradability: not readily biodegradable; log10 BCF: 1.76; log10 biotransformation half-life (days): -0.83
CC(C)OC(=O)C(=O)OC(C)C		191	
CCCCOC(=O)CCCCC(=O)OCCCC	-32.4		ready biodegradability: readily biodegradable
O=C(CCl)c1ccccc1	56.5	247	log10 vapour pressure (mmHg): -2.27
CCc1cc(C)c(C)cc1C	-13.5	213	
C/C(=C\CNc1ncnc2[nH]cnc12)CO	208		
CCCCOCCOCCOC(C)=O	-32	245	log10 vapour pressure (mmHg): -1.4; ready biodegradability: readily biodegradable
C=C(C)Cn1c(N)cc(=O)n(C)c1=O	175		
Cc1ccc(N)cc1C	51	228	log10 Henry constant (atm·m³/mol): -5.73; log10 vapour pressure (mmHg): -1.55; ready biodegradability: readily biodegradable; log10 BCF: 0.95; log10 biotransformation half-life (days): -0.99
CC1(C)CC(N)CC(C)(C)N1	17	188	
CCc1cccc(C)c1N(COC(C)C)C(=O)CCl	21.6		log10 vapour pressure (mmHg): -4.52
COc1c(O)cc(Cl)c(Cl)c1Cl			log10 Koc (L/kg): 2.8; log10 vapour pressure (mmHg): -3.05; ready biodegradability: not readily biodegradable; log10 BCF: 2.41; log10 biotransformation half-life (days): 0.11
O=C(Nc1ccc(Cl)c(Cl)c1)Nc1cc(Cl)ccc1Oc1ccc(Cl)cc1S(=O)(=O)[O-].[Na+]	223		

Compound	melting point [°C]	boiling point [°C]	also measured
CC1Cc2ccccc2O1 (centres undefined)		198	
CCOC(=O)C(C(C)=O)C(C)=O		210	
COc1ccc(OC)c(C=O)c1	52	270	
C=CC(C)(O)CC(C)C (centres undefined)		146	
CSC(C)(C)C=NO	21	210	
FC(F)(F)CC(F)(F)F	-94.2	-1.1	
CC(F)(Cl)CCl (centres undefined)	-91.7	88.6	
CCOc1ccc2c(c1)C(C)=CC(C)(C)N2			ready biodegradability: not readily biodegradable
C[N+](C)(C)CCOC(=O)CCC(=O)OCC[N+](C)(C)C.[Br-].[Br-]	225		
CC(C)OC(=O)[C@@H](C)N(C(=O)c1ccccc1)c1ccc(F)c(Cl)c1			log10 vapour pressure (mmHg): -6.2
O=C(O)c1c(F)cccc1F	159		
O=C(c1cc(O)c(O)c(O)c1)c1ccc(O)c(O)c1O	270		
C/C=C\C(=O)OC1C[C@H]2O[C@@H]3C=C(C)C(=O)C[C@]3(C)[C@]1(C)C21CO1 (some centres undefined)	118		
Cc1cc(C)c2ccccc2c1C	55.5		
Nc1ccc(-c2ccc(N)cc2)cc1	120	401	log10 Koc (L/kg): 3.46
C=CCOCC1CO1 (centres undefined)		154	
CC(C)(C)C(C)(C)Cl	136		
CCOCOCC	-66.5	88	log10 vapour pressure (mmHg): 1.53
CNC(=S)NC	62		
Cc1ccc(O)c(C)c1C	81	236	
O=[N+]([O-])c1ccc(O)c([N+](=O)[O-])c1	116		log10 Henry constant (atm·m³/mol): -7.07; log10 vapour pressure (mmHg): -3.41; ready biodegradability: not readily biodegradable; log10 BCF: 0.57
